Test results published in patent US12239643B2, “Therapeutic agent for inflammatory diseases, autoimmune diseases, fibrotic diseases, and cancer diseases” (MEIJI SEIKA PHARMA CO., LTD., priority 2018, dated 2025).
Like-named read-outs stand apart in the source and are kept apart here.

System: PDE4
Assay: Evaluation of PDE4 inhibitory activity, scintillation proximity assay
Type: biochemical
Details: scintillation proximity assay
Outline: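 SPA with [2,8-3H]-cAMP and diluted PDE4 enzyme preparation in 50 mM Tris-HCl pH 7.4, 8.3 mM MgCl2, 1.7 mM EGTA, 3 mg/mL BSA, 120 min at room temperature. Product captured on ZnSO4-containing YSi-SPA beads, scintillation counted; IC50 from inhibition curves vs DMSO control and no-enzyme blank.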

[1] = class symbols of Evaluation 1, read-out: PDE4 Inhibitory Activity (concentration for the inhibition rate of 50%, IC50), Evaluation 1
[2] = read-out: PDE4 Inhibitory Activity (Evaluation 1; concentration for the inhibition rate of 50%)

| Structure (SMILES) | IC50 [1] | IC50 [2] |
| --- | --- | --- |
| O=C(c1ccc(-c2nccs2)c2oc(N3CC4CCC(C3)N4)nc12)N1CCCCC1 [Example 117, (2-(3,8-Diazabicyclo[3.2.1]octan-3-yl)-7-(thiazol-2-yl)benzo[d]oxazol-4-yl)(piperidin-1-yl)methanone] | < 100 nM | – |
| CC(C)(O)c1cc(-c2cscn2)c2oc(N3CC4CC(C3)N4)nc2c1OC(F)(F)F [Example 288, 2-(2-(3,6-Diazabicyclo[3.1.1]heptan-3-yl)-7-(thiazol-4-yl)-4-(trifluoromethoxy)benzo[d]oxazol-5-yl)propan-2-ol] | – | < 100 nM |
| OC(c1cc(-c2nccs2)c2oc(N3CC4CCC(C3)N4)nc2c1OC(F)(F)F)C(F)F (centres unmarked) [Example 206, 1-(2-(3,8-Diazabicyclo[3.2.1]octan-3-yl)-7-(thiazol-2-yl)-4-(trifluoromethoxy)benzo[d]oxazol-5-yl)-2,2-difluoroethan-1-ol] | – | < 100 nM |
| c1csc(-c2ccc(-c3nccs3)c3oc(N4CC5CCC(C4)N5)nc23)n1 [Example 85, 2-(3,8-Diazabicyclo[3.2.1]octan-3-yl)-4,7-di(thiazol-2-yl)benzo[d]oxazole] | < 100 nM | – |
| CC(O)c1ccc(-c2nccs2)c2oc(N3CC4CCC(C3)N4)nc12 (centres unmarked) [Example 124, 1-(2-(3,8-Diazabicyclo[3.2.1]octan-3-yl)-7-(thiazol-2-yl)benzo[d]oxazol-4-yl)ethan-1-ol] | < 100 nM | – |
| OC1(c2cc(-c3nccs3)c3oc(N4CC5CCC(C4)N5)nc3c2OC(F)(F)F)CC1 [Example 274, 1-(2-(3,8-Diazabicyclo[3.2.1]octan-3-yl)-7-(thiazol-2-yl)-4-(trifluoromethoxy)benzo[d]oxazol-5-yl)cyclopropan-1-ol] | – | < 100 nM |
| CC(O)COC(c1ccc(-c2nccs2)c2oc(N3CC4CC(C3)N4)nc12)C(F)(F)F (centres unmarked) [Example 261, 1-(1-(2-(3,6-Diazabicyclo[3.1.1]heptan-3-yl)-7-(thiazol-2-yl)benzo[d]oxazol-4-yl)-2,2,2-trifluoroethoxy)propan-2-ol] | – | < 100 nM |
| CC(=O)c1cc(-c2nccs2)c2oc(N3CC4CCC(C3)N4)nc2c1C(F)(F)F [Example 179, 1-(2-(3,8-Diazabicyclo[3.2.1]octan-3-yl)-7-(thiazol-2-yl)-4-(trifluoromethyl)benzo[d]oxazol-5-yl)ethan-1-one] | < 100 nM | – |
| COC(C)(C)c1cc(-c2nccs2)c2oc(N3CC4CCC(C3)N4)nc2c1C(F)(F)F [Example 171, 2-(3,8-Diazabicyclo[3.2.1]octan-3-yl)-5-(2-methoxypropan-2-yl)-7-(thiazol-2-yl)-4-(trifluoromethyl)benzo[d]oxazole] | < 100 nM | – |
| ON1C2CC1CN(c1nc3c(OC(F)(F)F)ccc(-c4nccs4)c3o1)C2 [Example 380, 3-(7-(Thiazol-2-yl)-4-(trifluoromethoxy)benzo[d]oxazol-2-yl)-3,6-diazabicyclo[3.1.1]heptan-6-ol] | – | < 100 nM |
| FC(F)(Oc1ccc(-c2nccs2)c2oc(N3CC4CC(C3)N4)nc12)c1nc2ccccc2o1 [Example 403, 4-(Benzo[d]oxazol-2-yldifluoromethoxy)-2-(3,6-diazabicyclo[3.1.1]heptan-3-yl)-7-(thiazol-2-yl)benzo[d]oxazole] | – | < 100 nM |
| COC(C)(c1cc(-c2nccs2)c2oc(N3CC4CC(C3)N4)nc2c1OC(F)(F)F)C(F)(F)F (centres unmarked) [Example 214, 2-(3,6-Diazabicyclo[3.1.1]heptan-3-yl)-7-(thiazol-2-yl)-5-(1,1,1-trifluoro-2-methoxypropan-2-yl)-4-(trifluoromethoxy)benzo[d]oxazole] | – | < 100 nM |
| CCOC(=O)c1ccc(-c2nccs2)c2oc(N3CC4CC(C3)N4)nc12 [Example 113, ethyl 2-(3,6-diazabicyclo[3.1.1]heptan-3-yl)-7-(thiazol-2-yl)benzo[d]oxazole-4-carboxylate] | < 100 nM | – |
| N#CCOc1ccc(-c2nccs2)c2oc(N3CC4CCC(C3)N4)nc12 [Example 82, 2-((2-(3,8-Diazabicyclo[3.2.1]octan-3-yl)-7-(thiazol-2-yl)benzo[d]oxazol-4-yl)oxy)acetonitrile] | < 100 nM | – |
